# Results reported in US8252832B2, “Kinesin inhibitors as cancer therapeutics” (Novartis AG, priority 2007, dated 2012).
# Assays:
# [1] = tested on: primary blast cells from AML patients; assay: Cell cycle analysis using propidium iodide staining, AML blasts; type: cell-based, human; settings: 0.2 and 2 nM
# Procedure: Primary blast cells from AML patients were tested for sensitivity to compound IIa as shown below. Frozen AML blasts from peripheral blood were obtained from AllCell LLC. (Emeryville, Calif.). Three frozen vials containing ˜1×10^7 PBMCs were purchased. Peripheral blood mononuclear cells (PBMCs) from three newly diagnosed AML patients with a high percentage of blasts (#06-188, 80%; #06-366, 88%; #06-503, 73%) were cultured for several weeks and treated with the KSP inhibitors. The vials were rapidly thawed and the cells were cultured in Iscove's DMEM supplemented with 10% FBS and the following cytokines all at 10 ng/ml: GM-CSF, G-CSF, SCF, IL-3, and IL-6 (all from R&D Systems). Three assays were performed on the cells as follows: • CellTiter-Glo® assay on AML blasts. PBMCs containing AML blasts were seeded in 96-well plates (5000/well) and treated with various concentrations of the compound IIa (10 pM to 10 nM) for 48 hours before cells survival was measured as described above. GI50 values (nM) were calculated as for cell lines. • Cell cycle analysis using propidium iodide staining. […] The DNA content of the fixed and stained cells was analyzed by the BD FACSCalibur flow cytometer using the CellQuest software. • Colony formation assay in methylcellulose containing medium. […] Colonies were counted under a microscope after 2 weeks. […]
# HCT-116 = assay: CTG (CellTiter-Glo) screening assay; type: cell-based; settings: Homo sapiens
# Excerpt: Identification of tumor types that are the most sensitive to the KSP inhibitors of the present invention can be accomplished using an unbiased approach that uses several cell-based assays. The assays chosen were as follows: • CellTiter-Glo®. This is an assay designed to measure ATP concentration in a cell culture, and can be correlated to cell number. Briefly CellTiter-Glo® (Promega Corporation) is a homogeneous method using the single CellTiter-Glo® reagent to detect ATP wherein ATP in the assay drives the activity of a thermostable luciferase to create a luminescent signal which can then be measured and correlated with the number of viable cells. Briefly, for adherent cells, 1,000 to 5,000 cells/well were plated in 96-well plates (100 μl/well) and let to adhere for 24 hours before being treated with drug. For non-adherent cells, 1,000 to 10,000 cells/well were plated in 96-well plates (100 μl/well) and immediately treated with drug. Drug dilutions were prepared in DMSO at 1000 times the final concentration. These dilutions were then diluted 1/100 in growth media before being added to the cells (11 μl/well) to achieve the desired final concentration. […] Protocol for a 72 hour cell proliferation assay: The 72 hour assay was performed the same way as the 48 hour assay except for the following modifications: For adherent cells, 500 to 5,000 cells/well were plated in 96-well plates (90 μl/well cell growth media) and left to adhere for 24 hours before being treated with drug. For non-adherent cells, 1,000 to 10,000 cells/well were plated in 96-well plates (90 μl/well cell growth media) and immediately treated with drug. Data values presented represent the concentration of test compound required for a 50% reduction in growth. • LDH release. […] The enzymatic reaction is coupled to a chemical reaction that uses a tetrazolium salt to form a formazan that is red and can be detected by its absorbance at 490 nm. […]
smiles,measurement,setting,value
CC(C)(C)[C@H](c1nc(-c2cc(F)ccc2F)cn1Cc1ccccc1)N(CC[C@H](N)CF)C(=O)CO [Compound IIa],"cell cycle profile, 4N population","[1]; sample #06-366, 24 hours",increase in the number of cells arrested in mitosis
same,"cell cycle profile, <2N population","[1]; sample #06-366, 48 hours",increase in the number of dying cells
same,GI50,"HCT-116; HCT-116, 24 h",> 5000 pM
same,GI50,"HCT-116; HCT-116, 48 h",110 pM
same,GI50,"HCT-116; HCT-116, 72 h",130 pM
